According to patent US11142525B2 (Pfizer Inc., priority 2018, dated 2021):
Where two headings read alike, the source gives them in different places.

Assays:
[1] = target: human full-length recombinant HPK1 (Homo sapiens (Human), UniProt Q92918); test: HPK1 biochemical enzyme assay, microfluidic mobility shift assay (MSA); conditions: read-out: HPK1 Enzyme Assay_Ki
Protocol: HPK1 enzyme inhibition was measured using a microfluidic mobility shift assay (MSA). […] The reactions were conducted for 60 min at 37° C., stopped by the addition of 50 μL of 0.015 M EDTA, pH 8, and the extent of reactions (˜15-20% conversion with no inhibitor) was determined after electrophoretic separation of the fluorescently labeled peptide substrate and phosphorylated product on an LabChip EZ Reader II (PerkinElmer, Inc., Waltham, Mass.). […]

[2] = test system: phospho-SLP-76 (Ser376) in Jurkat cells; test: Phospho-SLP-76 (Ser376) Homogeneous Time Resolved Fluorescence (HTRF) assay in Jurkat cells; assay type: cell-based; conditions: Homo sapiens, read-out: SLP76 Assay_IC50
Protocol: Jurkat cells were seeded at 90,000 cells/well in 90 uL of RPMI1640 growth medium containing 10% FBS and incubated at 37° C. with 5% CO2 overnight. The following day, compounds were serially diluted from a 10 mM top dose for an 11-point 3 fold dilution curve in DMSO. Compounds were intermediately diluted 1:100 into growth media prior to diluting 1:10 on cells for final concentration 10 μM to 0.1 nM in 0.1% DMSO. After 30 minutes pre-treatment with compounds, the cells were stimulated using 200 μg/mL of F(ab)2 complexed anti-CD3 (clone UCTH1) for 15 min at 37° C. with 5% CO2. Stimulation was stopped with ice cold PBS and cells were harvested by centrifugation before lysis in Cisbio lysis buffer (Cisbio, Bedford, Mass.). Lysates were transferred to white, low-volume plates containing anti-phospho-SLP-76-Cryptate plus anti-phospho-SLP-76-d2 HTRF antibodies and incubated overnight at room temperature protected from light according to the manufacturer's protocol (Cisbio, Bedford, Mass.). HTRF was measured on a Perkin Elmer Envision and IC50 values were calculated by concentration-response curve fitting utilizing four-parameter nonlinear regression analyses.

[3] = mobility shift assay, 75 μM ATP, Morrison equation, tight-binding competitive inhibition
[4] = 30 min pre-treatment, anti-CD3 stimulation 15 min, HTRF
[5] = Phospho-SLP-76 (Ser376) HTRF, anti-CD3 stimulation

human full-length recombinant HPK1, sequence (Q92918 whole entry): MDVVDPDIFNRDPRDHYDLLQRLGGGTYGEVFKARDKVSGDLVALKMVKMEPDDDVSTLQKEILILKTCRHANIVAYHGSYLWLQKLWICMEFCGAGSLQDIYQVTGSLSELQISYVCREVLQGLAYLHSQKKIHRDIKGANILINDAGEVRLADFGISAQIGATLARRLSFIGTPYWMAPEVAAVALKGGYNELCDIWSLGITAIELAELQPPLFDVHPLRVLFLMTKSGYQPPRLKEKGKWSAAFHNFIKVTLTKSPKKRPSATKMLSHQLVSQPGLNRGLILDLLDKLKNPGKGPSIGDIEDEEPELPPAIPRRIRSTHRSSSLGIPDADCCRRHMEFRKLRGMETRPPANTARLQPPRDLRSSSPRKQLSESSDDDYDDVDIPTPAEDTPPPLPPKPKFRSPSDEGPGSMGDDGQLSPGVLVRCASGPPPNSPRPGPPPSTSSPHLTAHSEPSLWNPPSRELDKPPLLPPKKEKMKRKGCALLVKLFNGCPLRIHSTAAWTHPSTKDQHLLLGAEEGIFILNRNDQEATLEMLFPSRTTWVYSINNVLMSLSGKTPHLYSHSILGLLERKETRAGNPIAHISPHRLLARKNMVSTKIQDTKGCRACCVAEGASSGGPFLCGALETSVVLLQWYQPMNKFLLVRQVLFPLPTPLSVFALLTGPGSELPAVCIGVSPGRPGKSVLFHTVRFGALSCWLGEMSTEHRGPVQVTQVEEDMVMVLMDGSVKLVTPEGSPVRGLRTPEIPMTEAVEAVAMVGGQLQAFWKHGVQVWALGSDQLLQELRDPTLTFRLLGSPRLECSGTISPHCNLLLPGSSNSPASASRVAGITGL

CC[C@H](CC(F)(F)F)n1cnnc1-c1cccc(N2Cc3c(cc(N(C)C)nc3CNC)C2=O)n1 (single isomer, unassigned) [Example 19, 6-(dimethylamino)-4-[(methylamino)methyl]-2-(6-{4-[(3ξ)-1,1,1-trifluoropentan-3-yl]-4H-1,2,4-triazol-3-yl}pyridin-2-yl)-2,3-dihydro-1H-pyrrolo[3,4-c]pyridin-1-one]
Ki [1, 3]: 6.9 nM
IC50 [2, 4]: > 10000 nM

CC[C@H](CC(F)(F)F)n1cnnc1-c1cccc(N2Cc3c(cc(C(C)(C)C)nc3CNC)C2=O)n1 (single isomer, unassigned) [Example 51, 6-tert-butyl-4-[(methylamino)methyl]-2-(6-{4-[(3ξ)-1,1,1-trifluoropentan-3-yl]-4H-1,2,4-triazol-3-yl}pyridin-2-yl)-2,3-dihydro-1H-pyrrolo[3,4-c]pyridin-1-one]
Ki [1, 3]: 7.1 nM
IC50 [2, 4]: 1520 nM

CC[C@@H](CC(F)(F)F)n1cnnc1-c1cccc(N2Cc3c(cc(N(C)C(C)C)nc3CNC)C2=O)n1 (single isomer, unassigned) [Example 72, 4-[(methylamino)methyl]-6-[methyl(propan-2-yl)amino]-2-(6-{4-[(3ξ)-1,1,1-trifluoropentan-3-yl]-4H-1,2,4-triazol-3-yl}pyridin-2-yl)-2,3-dihydro-1H-pyrrolo[3,4-c]pyridin-1-one]
Ki ([1]; HPK1 mobility shift assay): 4.48 nM
IC50 [2, 5]: 1020 nM

CC[C@H](CC(F)(F)F)n1cnnc1-c1cccc(N2Cc3c(cc(N(C)C(C)C)nc3CNC)C2=O)n1 (single isomer, unassigned) [Example 73, 4-[(methylamino)methyl]-6-[methyl(propan-2-yl)amino]-2-(6-{4-[(3ξ)-1,1,1-trifluoropentan-3-yl]-4H-1,2,4-triazol-3-yl}pyridin-2-yl)-2,3-dihydro-1H-pyrrolo[3,4-c]pyridin-1-one]
Ki ([1]; HPK1 mobility shift assay): 0.22 nM
IC50 [2, 5]: 61 nM

CNCc1nc(N(C)C)cc2c1CN(c1cccc(-c3nncn3C(C)C)n1)C2=O [Example 1, 6-(dimethylamino)-4-[(methylamino)methyl]-2-{6-[4-(propan-2-yl)-4H-1,2,4-triazol-3-yl]pyridin-2-yl}-2,3-dihydro-1H-pyrrolo[3,4-c]pyridin-1-one]
Ki [1, 3]: 0.15 nM
IC50 [2, 4]: 112 nM

CNCc1nc(N2CCC2)cc2c1CN(c1cccc(-c3nncn3C(C)C)n1)C2=O [Example 2, 6-(azetidin-1-yl)-4-[(methylamino)methyl]-2-{6-[4-(propan-2-yl)-4H-1,2,4-triazol-3-yl]pyridin-2-yl}-2,3-dihydro-1H-pyrrolo[3,4-c]pyridin-1-one]
Ki [1, 3]: 0.28 nM
IC50 [2, 4]: 86 nM

CCN(CC)c1cc2c(c(CNC)n1)CN(c1cccc(-c3nncn3C(C)C)n1)C2=O [Example 4, 6-(diethylamino)-4-[(methylamino)methyl]-2-{6-[4-(propan-2-yl)-4H-1,2,4-triazol-3-yl]pyridin-2-yl}-2,3-dihydro-1H-pyrrolo[3,4-c]pyridin-1-one]
Ki [1, 3]: 0.39 nM
IC50 [2, 4]: 106 nM

CNCc1nc(C2CC2)cc2c1CN(c1cccc(-c3nncn3C(C)C)n1)C2=O [Example 5, 6-cyclopropyl-4-[(methylamino)methyl]-2-{6-[4-(propan-2-yl)-4H-1,2,4-triazol-3-yl]pyridin-2-yl}-2,3-dihydro-1H-pyrrolo[3,4-c]pyridin-1-one]
Ki [1, 3]: 0.39 nM
IC50 [2, 4]: 186 nM

CNCc1nc(N(C)C(C)C)cc2c1CN(c1cccc(-c3nncn3C(C)C)n1)C2=O [Example 6, 4-[(methylamino)methyl]-6-[methyl(propan-2-yl)amino]-2-{6-[4-(propan-2-yl)-4H-1,2,4-triazol-3-yl]pyridin-2-yl}-2,3-dihydro-1H-pyrrolo[3,4-c]pyridin-1-one]
Ki [1, 3]: 0.13 nM
IC50 [2, 4]: 39 nM

CNCc1nc(C2(C)CC2)cc2c1CN(c1cccc(-c3nncn3C(C)C)n1)C2=O [Example 7, 4-[(methylamino)methyl]-6-(1-methylcyclopropyl)-2-{6-[4-(propan-2-yl)-4H-1,2,4-triazol-3-yl]pyridin-2-yl}-2,3-dihydro-1H-pyrrolo[3,4-c]pyridin-1-one]
Ki [1, 3]: 1.46 nM
IC50 [2, 4]: 730 nM

CNCc1nc(N2[C@H](C)CC[C@H]2C)cc2c1CN(c1cccc(-c3nncn3C(C)C)n1)C2=O [Example 8, 6-[(2R,5R)-2,5-dimethylpyrrolidin-1-yl]-4-[(methylamino)methyl]-2-{6-[4-(propan-2-yl)-4H-1,2,4-triazol-3-yl]pyridin-2-yl}-2,3-dihydro-1H-pyrrolo[3,4-c]pyridin-1-one]
Ki [1, 3]: 0.25 nM
IC50 [2, 4]: 89 nM

CCN(CC)c1cc2c(c(CNC)n1)CN(c1cccc(-c3nncn3CC)n1)C2=O [Example 9, 6-(diethylamino)-2-[6-(4-ethyl-4H-1,2,4-triazol-3-yl)pyridin-2-yl]-4-[(methylamino)methyl]-2,3-dihydro-1H-pyrrolo[3,4-c]pyridin-1-one]
Ki [1, 3]: 0.27 nM
IC50 [2, 4]: 88 nM

CNCc1nc(N(C)C)cc2c1CN(c1cccc(N3C(=O)OC[C@@H]3C)n1)C2=O [Example 10, 6-(dimethylamino)-4-[(methylamino)methyl]-2-{6-[(4S)-4-methyl-2-oxo-1,3-oxazolidin-3-yl]pyridin-2-yl}-2,3-dihydro-1H-pyrrolo[3,4-c]pyridin-1-one]
Ki [1, 3]: 0.26 nM
IC50 [2, 4]: 97.6 nM

CC(C)c1[nH]ncc1-c1cccc(N2Cc3c(cc(N(C)C)nc3CN)C2=O)n1 [Example 11, 4-(aminomethyl)-6-(dimethylamino)-2-{6-[5-(propan-2-yl)-1H-pyrazol-4-yl]pyridin-2-yl}-2,3-dihydro-1H-pyrrolo[3,4-c]pyridin-1-one]
Ki [1, 3]: 0.09 nM
IC50 [2, 4]: 159 nM

CC(C)n1cnnc1-c1cccc(N2Cc3c(cc(N(C)C)nc3CN)C2=O)n1 [Example 12, 4-(aminomethyl)-6-(dimethylamino)-2-{6-[4-(propan-2-yl)-4H-1,2,4-triazol-3-yl]pyridin-2-yl}-2,3-dihydro-1H-pyrrolo[3,4-c]pyridin-1-one]
Ki [1, 3]: 0.2 nM
IC50 [2, 4]: 155 nM

C[C@@H](CC(F)(F)F)n1cnnc1-c1cccc(N2Cc3c(cc(N(C)C)nc3CN)C2=O)n1 [Example 13, 4-(aminomethyl)-6-(dimethylamino)-2-(6-{4-[(2S)-4,4,4-trifluorobutan-2-yl]-4H-1,2,4-triazol-3-yl}pyridin-2-yl)-2,3-dihydro-1H-pyrrolo[3,4-c]pyridin-1-one]
Ki [1, 3]: < 0.08 nM
IC50 [2, 4]: 85 nM

CC[C@H](C)n1cnnc1-c1cccc(N2Cc3c(cc(N(C)C)nc3CNC)C2=O)n1 [Example 14, 2-(6-{4-[(2S)-butan-2-yl]-4H-1,2,4-triazol-3-yl}pyridin-2-yl)-6-(dimethylamino)-4-[(methylamino)methyl]-2,3-dihydro-1H-pyrrolo[3,4-c]pyridin-1-one]
Ki [1, 3]: 0.17 nM
IC50 [2, 4]: 102 nM

CN(C)c1cc2c(c(CN)n1)CN(c1cccc(-c3nncn3CC3CC3)n1)C2=O [Example 16, 4-(aminomethyl)-2-{6-[4-(cyclopropylmethyl)-4H-1,2,4-triazol-3-yl]pyridin-2-yl}-6-(dimethylamino)-2,3-dihydro-1H-pyrrolo[3,4-c]pyridin-1-one]
Ki [1, 3]: 0.56 nM
IC50 [2, 4]: 358 nM

CNCc1nc(N(C)C)cc2c1CN(c1cccc(-c3nncn3[C@@H](C)CC(F)(F)F)n1)C2=O [Example 17, 6-(dimethylamino)-4-[(methylamino)methyl]-2-(6-{4-[(2S)-4,4,4-trifluorobutan-2-yl]-4H-1,2,4-triazol-3-yl}pyridin-2-yl)-2,3-dihydro-1H-pyrrolo[3,4-c]pyridin-1-one]
Ki [1, 3]: < 0.05 nM
IC50 [2, 4]: 70 nM
